In one assay the test system is Colo205 cells. Briefly: Analysis of cell proliferation and viability. Format: cell-based. Conditions: Homo sapiens, COLO 205, Colo205 cells, read-out: IC50 value.
The target of a further assay is Aurora-1 (Aurora B) (Homo sapiens, UniProt Q96GD4). Briefly: Aurora-1 (Aurora B) inhibition assay (radiometric). Type of assay: biochemical. To be noted: read-out: Aurora B kinase Ki value. A digest of the protocol:
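Radiometric ^33P incorporation into peptide substrate, with [γ-^33P]-ATP at 800 μM final, in 25 mM HEPES pH 7.5, 10 mM MgCl2, 0.1% BSA, 10% glycerol. Compound preincubated with enzyme for 10 min at 25° C, reaction run 3 h, then captured on phosphocellulose. Ki from initial rates by non-linear regression after background subtraction.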

For a further assay, the target named is T1, FLT-3 (Homo sapiens, UniProt P36888).
T1 sequence (P36888 27-993): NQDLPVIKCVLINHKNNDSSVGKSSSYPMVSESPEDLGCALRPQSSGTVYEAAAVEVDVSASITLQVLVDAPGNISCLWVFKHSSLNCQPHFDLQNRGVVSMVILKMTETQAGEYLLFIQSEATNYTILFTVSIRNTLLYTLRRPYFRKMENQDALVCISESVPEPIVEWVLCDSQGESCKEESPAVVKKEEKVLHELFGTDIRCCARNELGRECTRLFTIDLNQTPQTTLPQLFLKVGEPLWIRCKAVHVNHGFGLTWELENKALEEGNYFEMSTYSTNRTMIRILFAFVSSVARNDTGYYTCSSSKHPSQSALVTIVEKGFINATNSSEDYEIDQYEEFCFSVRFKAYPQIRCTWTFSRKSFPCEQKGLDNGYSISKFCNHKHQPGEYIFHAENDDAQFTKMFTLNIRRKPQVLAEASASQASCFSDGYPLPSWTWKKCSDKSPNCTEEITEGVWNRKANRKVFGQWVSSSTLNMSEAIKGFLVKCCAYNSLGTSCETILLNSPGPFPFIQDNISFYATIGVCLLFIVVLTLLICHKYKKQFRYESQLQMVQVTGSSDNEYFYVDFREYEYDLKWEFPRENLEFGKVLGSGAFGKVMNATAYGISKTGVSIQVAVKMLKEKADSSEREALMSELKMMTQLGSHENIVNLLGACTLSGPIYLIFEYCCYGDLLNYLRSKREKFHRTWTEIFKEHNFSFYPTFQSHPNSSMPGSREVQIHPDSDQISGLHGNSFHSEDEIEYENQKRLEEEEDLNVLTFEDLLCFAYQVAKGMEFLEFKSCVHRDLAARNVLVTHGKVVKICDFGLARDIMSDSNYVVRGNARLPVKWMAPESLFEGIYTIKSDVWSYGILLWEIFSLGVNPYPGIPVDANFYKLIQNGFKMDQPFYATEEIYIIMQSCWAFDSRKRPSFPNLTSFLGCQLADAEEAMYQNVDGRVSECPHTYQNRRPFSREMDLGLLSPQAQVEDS
Briefly: FLT-3 inhibition assay, radiometric filter-binding. Type of assay: biochemical.

This note sets out measurements from patent US8637511B2, “Aminopyrimidines useful as kinase inhibitors” (Vertex Pharmaceuticals Incorporated, priority 2005, dated 2014).

pIC50, pKi: −log10 of the molar value. Values joined by “and” are separate entries in the source; they are usually repeats but may differ in a detail not shown here. Identical values can stand only once. Like-named read-outs stand apart in the source and are kept apart here.

Aurora-1 (Aurora B), sequence (Q96GD4 whole entry): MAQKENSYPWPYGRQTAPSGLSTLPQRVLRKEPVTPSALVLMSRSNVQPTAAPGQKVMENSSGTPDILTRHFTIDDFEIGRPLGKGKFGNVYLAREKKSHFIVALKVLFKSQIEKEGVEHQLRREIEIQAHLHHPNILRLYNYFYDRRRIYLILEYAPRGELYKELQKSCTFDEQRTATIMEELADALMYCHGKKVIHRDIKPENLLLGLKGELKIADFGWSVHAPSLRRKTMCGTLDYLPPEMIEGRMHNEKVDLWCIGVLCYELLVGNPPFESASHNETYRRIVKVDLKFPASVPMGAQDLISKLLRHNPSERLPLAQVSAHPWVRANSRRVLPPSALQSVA

On to `Cc1cc(Nc2cc(N3CCC3)nc(Sc3ccc(NC(=O)C4CC4)cc3)n2)n[nH]1` [Compound 17], for which the pIC50 with Colo205 cells (incubated for 96 hours) was 6.00 to 7.30. For the same molecule, the pKi at Aurora-1 (Aurora B) is 7.30 to 8.00; at FLT-3 (read-out: FLT-3 Ki value) it was 6.82 to 7.30.
Consider `CCNC(=O)c1ccc(Sc2nc(Nc3cc(C)[nH]n3)cc(N3CCC3)n2)cc1` [Compound 20], for which the pIC50 with Colo205 cells (incubated for 96 hours) is 6.00 to 7.30. Also, the pKi on Aurora-1 (Aurora B) was 7.30 to 8.00; on FLT-3, 6.82 to 7.30.
Regarding `Cc1cc(Nc2cc(N3CC(F)(C4CC4)C3)nc(Sc3ccc(-c4ncc(C)o4)cc3)n2)[nH]n1` [Compound 175], the pIC50 in the assay on Colo205 cells (incubated for 72 hours) is less than 6.70. The negative logarithm of the Ki (pKi) on Aurora-1 (Aurora B) was 5.70 to 7.30; on FLT-3 it was 6.00 to 6.82.
`CC1=NN=C(Nc2cc(N3CCC3)nc(Sc3ccc(NC(=O)c4cccc(C(F)(F)F)c4F)cc3)n2)C1` [Compound 55]: in the assay with Colo205 cells (incubated for 96 hours), the pIC50 was 6.00 to 7.30. Besides, the pKi at Aurora-1 (Aurora B) was not below 8.00; at FLT-3 it was 6.00 to 6.82.
As to `Cc1cc(Nc2cc(N3CCC3)nc(Sc3ccc(NS(C)(=O)=O)cc3)n2)[nH]n1` [Compound 150], the pIC50 in the assay on Colo205 cells (incubated for 72 hours) is less than 6.70. In addition, the pKi is 5.70 to 7.30 on Aurora-1 (Aurora B) and not below 7.30 at FLT-3 (read-out: FLT-3 Ki value).
`Cc1ccc(S(=O)(=O)Nc2ccc(Sc3nc(Nc4cc(C)[nH]n4)cc(N4CCC4)n3)cc2)cc1` [Compound 27]: in the assay with Colo205 cells (incubated for 96 hours), the negative logarithm of the IC50 (pIC50) was less than 6.00. The negative-log Ki (pKi) was 5.70 to 7.30 at Aurora-1 (Aurora B) and 6.82 to 7.30 at FLT-3.
In the case of `Cc1ccc(C(=O)Nc2ccc(Sc3nc(Nc4cc(C)[nH]n4)cc(N4CCC4)n3)cc2)cc1` [Compound 28], in the assay on Colo205 cells (incubated for 96 hours), the pIC50 was 6.00 to 7.30. Besides, the pKi on Aurora-1 (Aurora B) is 7.30 to 8.00; on FLT-3, 6.00 to 6.82.
Regarding `CC1=NN=C(Nc2cc(N3CCC3)nc(Sc3ccc(NC(=O)c4ccccc4)cc3)n2)C1` [Compound 52], in the assay on Colo205 cells (incubated for 96 hours), the pIC50 is 6.00 to 7.30. For the same molecule, the negative-log Ki (pKi) on Aurora-1 (Aurora B) was 5.70 to 7.30; on FLT-3 (read-out: FLT-3 Ki value), 6.00 to 6.82.
Turning to `CCC(=O)Nc1ccc(Sc2nc(Nc3cc(C)n[nH]3)cc(N3CC(C)(C#N)C3)n2)cc1` [Compound 79], in the assay on Colo205 cells (incubated for 96 hours), the pIC50 is 6.00 to 7.30. Also, the negative-log Ki (pKi) is 7.30 to 8.00 and > 7.60 on Aurora-1 (Aurora B); not below 7.30 on FLT-3 (read-out: FLT-3 Ki value).
As for `CCC(=O)Nc1ccc(Sc2nc(Nc3cc(C)n[nH]3)cc(N3CC(C)(OC(C)(C)C)C3)n2)cc1` [Compound 96], in the assay on Colo205 cells (incubated for 96 hours), the pIC50 was not below 7.30. Further, the pKi on Aurora-1 (Aurora B) is 7.30 to 8.00 and > 7.60; on FLT-3 (read-out: FLT-3 Ki value) it was 6.82 to 7.30.
For `Cc1cc(Nc2cc(N3CC(N4CCOCC4)C3)nc(Sc3ccc(NC(=O)CC(F)(F)F)cc3)n2)[nH]n1` [Compound 199], the negative logarithm of the IC50 (pIC50) in the assay with Colo205 cells (incubated for 72 hours) is not below 7.52. In addition, the pKi at Aurora-1 (Aurora B) is not below 8.00; on FLT-3, not below 7.30.
